Source: paper PMC11885506, “Evaluation of a non-animal toolbox informed by adverse outcome pathways for human inhalation safety” (Frontiers in Toxicology, 2025)
Entries after “also recorded” stand apart in the source; their conditions may differ. Structures can show the parent of a compound that is named as a salt.

Legend:
MucilAir™-HF tissues [1] = assay: Mucin-5AC (Muc5AC) immunohistochemistry, goblet cells, MucilAir-HF model; assay type: cell-based, human; conditions: for Increase in cells expressing Muc5AC protein: 30 min/day
Protocol: (§1) Tissues were handled as recommended by manufacturer’s instruction.
The presence of goblet cells was assessed through immunohistochemistry analysis for mucin-5AC protein (Muc5AC) detection. IL-13 and cytomix were used as positive controls (see item 2.5.2 for additional details). On last day of experiment (day 12), cultures (n = 3 tissues/group) were rinsed in PBS and fixed by immersion in 4% formaldehyde for 20 min. Fixed tissues were embedded into paraffin, sectioned, and processed for staining on paraffin sections. The immunostaining of the sections was performed with the Benchmark automated platform (Ventana-Roche, Hoffmann-La Roche Ltd, Basel, Switzerland) and the Autostainer Link 48 (Agilent, Santa Clara, CA. United States) with the detection kit Ultraview DAB (DAB chromogeny, Hoffmann-La Roche Ltd). Sections were pre-treated using heat mediated antigen retrieval with sodium citrate buffer, pH 6, for 20 min. The section was then incubated with recombinant anti-mucin 5AC antibody (ab3649, Abcam) for 1 h at room temperature, followed by biotinylated secondary antibody (Dako) and HRP detection (HRP conjugated ABC system, Vector Laboratories), according to manufacturer’s instruction. The section was then counterstained with hematoxylin (Sigma-Aldrich) and mounted with DPX, a synthetic non-aqueous mounting medium for microscopy. Digital images of the slides were then acquired, and quantitative image analysis performed using Image Pro Plus 6.2 (Media Cybernetics) to quantify the goblet cells on a section. The whole images of stained sections were scanned, and an average 15 images/section were analysed. The results are the ratio between the mucin 5AC stained area and the total surface area of the epithelium on the section.

NCI-H292 cells = conditions: 1 µM for 48h; ref Matsuyama et al., 2018; cited from earlier work
MucilAir™-HF tissues [2] = assay: Cytokine and chemokine measurements (Luminex), MucilAir-HF model; assay type: cell-based, human; conditions: MucilAir-HF, 30 min/day exposure
Protocol: as §1
Basolateral medium samples of the tissue cultures were collected and stored at −80°C until analysis. The following cytokines/chemokines were quantified using customized Human Luminex® Discovery Assay kits (R&D Systems): chemokine (C-C motif) ligand (CCL) 2, CCL7, CCL26, C-X-C motif chemokine ligand (CXCL) 10, CXCL11, intercellular adhesion molecule-1 (ICAM-1), IL-1α, IL-6, IL-8, matrix metalloproteinase (MMP)-1, MMP-2, MMP-3, MMP-7, MMP-9, osteopontin, interferon (IFN)-γ, IL-1 receptor antagonist (IL-1Ra), urokinase-type plasminogen activator receptor (uPAR), tumour necrosis factor (TNF)-α, urokinase (uPA), serpin E1, tissue inhibitor of metalloproteinase 1 (TIMP-1), and TGF-β1. Samples were measured in technical triplicates according to the manufacturer’s recommendation using a Luminex Bio-Plex® 200 RUO System ([…]).

[3] = test system: primary human nasal epithelial cells; parameters: method as in Uchenna Agu et al., 1999; conditions: 10^-5 and 10^-3 M for 30-45 min; ref Uchenna Agu et al., 1999; cited from earlier work
16HBE14 o^− cells = conditions: cited from earlier work
MucilAir™-HF tissues [4] = assay: Mucin secretion measurement (enzyme-linked lectin assay), MucilAir-HF model; assay type: cell-based, human
From the text: as §1
Mucin production was quantified using an enzyme-linked lectin assay, following a protocol previously published ([Rossner et al., 2019]).

MucilAir™-HF model = assay: Bioactivity exposure ratio (BER): lowest in vitro PoD of MucilAir-HF readouts / upper respiratory tract exposure estimate
Protocol: (§4) Concentration and time-dependent changes in the bioactivity readout data were analyzed using a nonlinear state space model, based on the work of [Svensson and Schön (2017)]. […] All bioactivity readouts were included in the analysis (where available), i.e., measurements for tissue integrity loss (TEER) and functionality (MCC, CBF, and mucin secretion), cytokine/chemokine secretion, and the transcriptional LV values obtained using PLIER. The datasets were grouped so that a single state space model was used to capture all the responses (across time, concentration, and test material) for a single readout obtained within a particular study (laboratory/tissue model). Data were transformed to the log base 10 scale and normalized using z-scores, so that for a given readout Ytij from a laboratory/tissue model, the corresponding normalized value was given by y^tij=⁡log⁡10(Ytij)−μ)/σ . Here, the indexes i,j,t correspond to the different test materials, concentrations and timepoints, μ and σ are the sample mean and standard deviation of the control readout values obtained for the first timepoint. All measurement were then scaled so that the maximum median value across different replicates was one for all timepoints, readouts and test materials within a given laboratory/tissue model.
The model consists of state variables xti,j , response variables ytij and the concentrations of material c^i,j . The response variables yti,j represent the normalized (see below) readout values at timepoint t for material exposure i,j . The mean of the response variable is given by xti,j , so that yti,j∼xti,j+et , where et represents random fluctuations in the readout values, due to observational noise, which are taken to be normally distributed. Dynamical changes in state values are given by xti,j=fxt−1i,j,cti,j+vt . […] For each state space model representing a particular laboratory/readout dataset, SMC simulation was run for three chains at 5,000 iterations each, and first 1,000 iterations were discarded from the final posterior samples. […]

EpiAlveolar™ model = assay: Bioactivity exposure ratio (BER): lowest in vitro PoD of EpiAlveolar readouts / lower respiratory tract exposure estimate or Cmax; parameters: species or system human; conditions: Plasma
Protocol: as §4
The model consists of state variables xti,j , response variables ytij and the concentrations of material c^i,j . The response variables yti,j represent the normalized (see below) readout values at timepoint t for material exposure i,j . The mean of the response variable is given by xti,j , so that yti,j∼xti,j+et , where et represents random fluctuations in the readout values, due to observational noise, which are taken to be normally distributed. Dynamical changes in state values are given by xti,j=fxt−1i,j,cti,j+vt . Here, fxt−1i,j,c^i,j is a non-linear function that represents interactions between different state variables and the perturbation caused by the test material at a given exposure at concentration c^i,j, and vt represents random fluctuations in state dynamics (which are also normally distributed). Following [Svensson and Schön (2017)], the nonlinear terms are based on an approximation to Gaussian processes, which are obtained using a basis function expansion-based approach. Inference of the model parameters was performed in the framework of Bayesian inference, wherein random draws of the posterior distribution were obtained using Sequential Monte Carlo (SMC), see [Svensson and Schön (2017)] and [Chopin and Papaspiliopoulos (2020)]. For each state space model representing a particular laboratory/readout dataset, SMC simulation was run for three chains at 5,000 iterations each, and first 1,000 iterations were discarded from the final posterior samples. The Rhat convergence diagnostic (Rhat < 1.1) was used to ensure the simulations had converged.
The state space model and posterior model parameter samples were then used to construct posterior predictive distributions of the response of each readout to a given test material for a given concentration and timepoint (see Figure 4). The posterior predictive distributions were used to estimate various statistics on the readout responses (median, 95% credible range etc.), PoDs, Concentration Dependency Scores (CDS) and two Effect Scores (increase and decrease). PoDs were defined as the concentration at which the mean response to a test material exceeded the 95% credible range of control for each timepoint (otherwise the mean response remains within the range of control). PoDs distribution for each timepoint, test material and readout, from which different statistical measures (e.g., the median, 95% credible range etc.) were calculated. The CDS was designed to provide confidence metric in whether an effect in the data was truly concentration dependent.

EpiAlveolar™ tissues [5] = assay: Cytokine and chemokine measurements (Luminex), EpiAlveolar model, Laboratory 2; assay type: cell-based, human; conditions: for MinPoD: EpiAlveolar™ model Laboratory-2
From the text: (§2) EpiAlveolar™ system was obtained from MatTek Corporation (Ashland, MA, United States, cat. no. ALV-100-FT-MAC, ALV-100-FT-MAC-PE12). According to the supplier, the tissue systems were derived from primary human alveolar epithelial cells and primary pulmonary fibroblasts, both from a same healthy donor, and pulmonary endothelial cells from another healthy donor, and THP-1 cell line derived macrophages. These tissues were differentiated by the manufacturer prior to shipping to the testing facilities. […] TEER was measured and only systems with confirmed quality of the tight junction barrier (>300 Ω.cm^2) and with approved morphological inspection were used in the experiments.
(§3) Vehicle control groups were also tested in parallel. Except for Doxorubicin (which underwent a 6-day chemical exposure + 6-day without exposure), exposures were conducted daily, on 12 consecutive days with different concentrations, through aerosol, apical or basolateral liquid exposure methods (Table 2). […] Each of the insert holders of the instrument base module was filled with Hanks’ Balanced Salt solution (HBSS) or PBS prior to placing the tissue inserts. Then, each test item solution/suspension was placed into the nebulizer reservoir for aerosol material exposure. The nebulizer was activated until the material solution/suspension was consumed and discharged into the main exposure chamber and allowed to fully gravity deposit out of the Cloud 12 (determined using a QCM). After exposure, the tissues were placed back into their multi-well culture plates containing the same medium, a further aliquot of media was added apically (20 µL for Akemi, 75 µL for all others except LPS) and returned to incubator until next exposure. Media used during the 6- or 12-day experimental period was prepared without Supplement X by MatTek. In medium exposure, the apical or basolateral liquid of each tissue was removed and replaced with each test item medium solution/suspension and returned to the incubator until the next exposure. After the beginning of the exposure cycles, tissues were only re-fed with new culture medium every 3-4 days.
In Laboratory 2, apical culture media samples of the tissues were collected, stored at −80°C until shipment, in dry ice with temperature monitor control, to Unilever SERS, where the analyses were performed. Upon receipt, samples were again stored in the −80°C until the analysis using Human Luminex® Discovery Assay kits (R&D Systems). The same readouts investigated for MucilAir™-HF tissue samples were quantified in these samples.

EpiAlveolar™ tissues [6] = assay: Cytokine and chemokine measurements (Luminex), EpiAlveolar model, Laboratory 1; assay type: cell-based, human; conditions: for MinPoD: EpiAlveolar™ model Laboratory-1, biomarker ICAM-1
From the text: as §2, §3
In Laboratory 1, basal media samples collected from the tissues were collected and stored at ≤ −60°C until analysis. For cytokine/chemokine measurements, 17-Plex, duplex and single-plex analyte detection panels were run on the samples using Human Luminex™ Multiplex Immunoassay kits (R&D Systems). The analytes quantified were TNF-α, IL-6, MMP-9, MMP-3, MMP-1, MMP-2, CXCL10, CCL2, IFN-γ, IL-1ra, CCL7, IL-1a, CCL26, CXCL9, VCAM-1, ICAM-1, and CXCL11 in a 17-plex assay; whereas IL-8 and Serpin E1 in a duplex assay and TGF-β1 in a single-plex assay.

EpiAlveolar™ tissues [7] = assay: Histology and immunohistochemistry, EpiAlveolar model, Laboratory 2; conditions: Laboratory 2, 12-day period
Protocol: To evaluate the quality of EpiAlveolar™ tissues over the 12-day experimental period, histological and immunohistochemistry assessments for detection of pan-cytokeratin, vimentin, aquaporin 5, pro-surfactant C, CD68, caspase-3, and/or αSMA were performed by Laboratories 1 and 2.
Tissues were kept in 10% phosphate buffered formalin at 4°C for up to 48 h. Samples were then fixed in 70% ethanol and two strips of membrane were trimmed from each sample, processed, and paraffin-embedded to be cut at 5 µm thick sections and mounted to glass slides. The slides were then dewaxed in xylene, hydrated using graded industrial methylated spirit (70-100%) and stained with H&E for light microscope analysis.
For immunohistochemistry analysis, tissue sections-containing microscope slides were obtained and processed using a Discovery Ultra Staining System (Roche), according to manufacturer’s instructions, except for anti-CD68 staining that was manually performed. The slides were incubated at 60°C for 8 min and then deparaffinized at 69°C for 24 min. After that, slides were incubated with inhibitor CM or peroxidase blocking solution (for anti-CD68 staining) for 8 min at room temperature. The slides were then incubated at room temperature with the following primary monoclonal antibodies, following manufacturer’s instructions: anti-α smooth muscle actin (αSMA) at 1:500 (Leica Microsystems Ltd), anti-CD68 at 1:3000 for macrophages (11192-T24, Sino Biological), anti-pro-surfactant C protein at 1:1000 (AB3786, Sigma-Aldrich), anti-caspase-3 at 1:10000 (AB4051, Abcam), anti-aquaporin 5 (31661, Invitrogen), anti-pan-cytokeratin for epithelial cells (760-2595, Roche), and anti-vimentin for mesenchymal cells (790-2917, Roche). […]
A board-certified pathologist evaluated the changes (epithelial thinning, separation/detachment areas, necrosis, collagen, and presence of apoptotic cells, myofibroblasts, and type II pneumocytes) using a semi-quantitative scoring system (Table 2).

patients = test system: patients; parameters: method as in Budin et al., 2022; conditions: ref Budin et al., 2022; cited from earlier work
EpiAlveolar™ tissues [8] = assay: High-throughput transcriptomics (RNA-seq, PLIER latent variables), EpiAlveolar model, Laboratory 2; assay type: cell-based, human; conditions: Transcriptomics, biomarker 30
[9] = cited from earlier work
[10] = 30 min/day exposure, day 12, High 1 concentration (third of the tested concentrations), average ± standard deviation
[11] = 30 min/day exposure, day 12, Low concentration (first of the tested concentrations), average ± standard deviation
[12] = 30 min/day exposure, day 12, Medium concentration (second of the tested concentrations), average ± standard deviation

In the case of `CC(C)NCC(O)c1ccc(O)c(O)c1` (stereo not drawn) [Isoproterenol, Isoproterenol hydrochloride], the “Increase in cells expressing Muc5AC protein” value (MucilAir™-HF tissues [1]; 50 μM) is reported as 2.5 fold, the “Increase in cells expressing Muc5AC protein” value (MucilAir™-HF tissues [1]; 100 μM) is reported as 3 fold and the “% of Muc5AC area” value (MucilAir™-HF tissues [1]; [10]) is reported as 18.91 ± 3.09%. For the same compound, the “% of Muc5AC area” value (MucilAir™-HF tissues [1]; [11]) was 8.78 ± 1.62%, the “% of Muc5AC area” value (MucilAir™-HF tissues [1]; [12]) was 15.53 ± 1.41% and the “MUC5AC mRNA expression” value (NCI-H292 cells) was “significant increase in MUC5AC mRNA expression”. The “Cytokines/chemokines modulated (in words)” value (MucilAir™-HF tissues [2]) was “downregulation of MMP-7 only”, the CBF [3] was “maximally and irreversibly increased ciliary CBF” and the IL-8 levels (16HBE14 o^− cells; 1-30 nM for 18h, 16HBE cells, ref Lindén, 1996) was “IL-8 levels were also increased”. The “IL-6 and IL-8 release” value (16HBE14 o^− cells; 10-100 nM for 24h, ref Oehme et al., 2015) was “significant increase of IL-6 and IL-8 release”.

With “IL-13: goblet cell hyper-, metaplasia agent used as positive control at 10 ng/mL” the “Increase in cells expressing Muc5AC protein compared to unexposed tissues” value (MucilAir™-HF tissues [1]; positive control IL-13 at 10 ng/mL) was 4 fold and the “% of Muc5AC area” value (MucilAir™-HF tissues [1]; positive controls via liquid basal exposure, 30 min/day column, day 12, average ± standard deviation) was 26.35 ± 3.34%.

For `O=c1ccc2ccccc2o1` [Coumarin], the “% of Muc5AC area” value (MucilAir™-HF tissues [1]; [10]) was 3.29 ± 0.36%, the “% of Muc5AC area” value (MucilAir™-HF tissues [1]; [11]) was 5.09 ± 0.57% and the “% of Muc5AC area” value (MucilAir™-HF tissues [1]; [12]) was 6.83 ± 1.07%. The “% of Muc5AC area” value (MucilAir™-HF tissues [1]; 6 h/day exposure, day 12, single tested concentration, average ± standard deviation) was 2.85 ± 0.43%, the MinPoD (MucilAir™-HF tissues [4]; Day 8, biomarker Mucins) was 6.056 μg/cm2 and the MinPoD (MucilAir™-HF tissues [4]; Day 12, biomarker Mucins) was 4.8708 μg/cm2. The BER_min (MucilAir™-HF model; Scenario1, Day 8) was 30691.6 and the BER_min (MucilAir™-HF model; Scenario1, Day 12) was 24110.2.

Work on `CCCCc1oc2ccccc2c1C(=O)c1cc(I)c(OCCN(CC)CC)c(I)c1` [Amiodarone, Amiodarone hydrochloride] yielded a BER_min (EpiAlveolar™ model; Day 4, EpiAlveolar™ model Laboratory-2) of 3.4764, a BER_min (EpiAlveolar™ model; Day 4, Transcriptomics) of 0.004237 and a BER_min (EpiAlveolar™ model; Day 8, EpiAlveolar™ model Laboratory-1) of 0.6586. The BER_min (EpiAlveolar™ model; Day 8, EpiAlveolar™ model Laboratory-2) was 2.602, the BER_min (EpiAlveolar™ model; Day 8, Transcriptomics) was 0.004247 and the BER_min (EpiAlveolar™ model; Day 12, EpiAlveolar™ model Laboratory-1) was 0.4855. For the same compound, the BER_min (EpiAlveolar™ model; Day 12, EpiAlveolar™ model Laboratory-2) was 2.516, the BER_min (EpiAlveolar™ model; Day 12, Transcriptomics) was 0.004174 and the “Cytokines/chemokines modulated (in words)” value (EpiAlveolar™ tissues [5]; EpiAlveolar, Laboratory 2) was “upregulated levels of ICAM-1; also recorded: downregulated levels of MMP-1 and MMP-2”. It also gave a MinPoD (EpiAlveolar™ tissues [5]; Day 4, biomarker MMP-1) of 6.9528 μg/cm2, a MinPoD (EpiAlveolar™ tissues [5]; Day 8, biomarker ICAM-1) of 5.203 μg/cm2 and a MinPoD (EpiAlveolar™ tissues [5]; Day 12, biomarker ICAM-1) of 5.033 μg/cm2. For the same compound, the “Cytokines/chemokines modulated (in words)” value (EpiAlveolar™ tissues [6]; EpiAlveolar, Laboratory 1) was “upregulated levels of ICAM-1”, the MinPoD (EpiAlveolar™ tissues [6]; Day 8) was 1.317 μg/cm2 and the MinPoD (EpiAlveolar™ tissues [6]; Day 12) was 0.971 μg/cm2. For the same compound, the “Histological changes compared to vehicle and control groups (in words)” value (EpiAlveolar™ tissues [7]) was “changes were not observed”, the “Patients developing Amiodarone-induced pulmonary fibrosis following typical Amiodarone pneumonitis” value (patients) was 5%–7% and the MinPoD (EpiAlveolar™ tissues [8]; Day 4) was 0.008474 μg/cm2. The MinPoD (EpiAlveolar™ tissues [8]; Day 8) was 0.008494 μg/cm2, the MinPoD (EpiAlveolar™ tissues [8]; Day 12) was 0.00835 μg/cm2 and the Risk ([9]; Scenario Plasma) was “High”. The Risk classification ([9]; per benchmark chemical-exposure scenario (product and exposure scenario of the same line), based on historical safety decisions, ref References column of Table 3) was “High”.
